According to patent EP0435222A2, “Aminopyridinylmethanols and aminomethylpyridinamines and related compounds, a process for their preparation and their use as medicaments” (HOECHST-ROUSSEL PHARMACEUTICALS INCORPORATED, priority 1989, dated 1991):
Where a name gives a salt, the structure may show the parent alone. Read-outs that look alike come from different tables or passages of the source.

Columns and labels:
[1] = system: Scopolamine Induced Memory Deficit; experiment: Dark Avoidance Assay (reversal of scopolamine-induced memory deficit); type: in vivo, mice; conditions: for responders at 0.3 mg/kg: Dose 0.30 mg/kg of body weight; for responders at 0.16 mg/kg: Dose 0.16 mg/kg of body weight
Description: In this assay mice are tested for their ability to remember an unpleasant stimulus for a period of 24 hours. A mouse is placed in a chamber that contains a dark compartment: a strong incandescent light drives it to the dark compartment, where an electric shock is administered through metal plates on the floor. The animal is removed from the testing apparatus and tested again, 24 hours later, for the ability to remember the electric shock. If scopolamine, an anticholinergic that is known to cause memory impairment, is administered before an animal's initial exposure to the test chamber, the animal re-enters the dark compartment shortly after being placed in the test chamber 24 hours later. This effect of scopolamine is blocked by an active test compound, resulting in a greater interval before re-entry into the dark compartment. The results for an active compound are expressed as the percent of a group of animals in which the effect of scopolamine is blocked, as manifested by an increased interval between being placed in the test chamber and re-entering the dark compartment.

[2] = system: 2-phenyl-1,4-benzoquinone-induced writhing; experiment: Inhibition of Phenylquinone-Induced Writhing in Mice (PQW); type: in vivo, male CD-1 Charles River mice
Description: A 0.125% concentration of phenyl-p-benzoquinone in a 5% aqueous solution of ethyl alcohol is administered to mice (10 mL/kg, ip). This produces a characteristic "writhe" which is defined as an inward rotation of one or more feet with twisting and turning of the trunk, drawing in of the abdominal wall, lordosis, and arching of the back. A total of 28 male CD-1 Charles River mice (18-30 g) are employed for a time-response. Animals receive food and water ad libitum during their stay in the animal quarters prior to testing. Compounds are tested at 20 mg/kg, sc and are prepared with distilled water, and if insoluble one drop of Tween-80, a surfactant is added. Compounds are administered in a dosage volume of 10 mL/kg.
Twenty mice (five per group) are administered the test compound at various pretreat time (e.g., 15,30,45, and 60 min) prior to phenylquinone injection. Control animals (two per group) receive an equal volume of vehicle. After the administration of phenylquinone, the mice are placed separately into 1-L beakers, and 5 min are allowed to elapse. The mice are then observed for a period of 10 min, and the number of writhes is recorded for each animal. The formula for computing percent inhibition is [drawing 20]
The time period with the maximum percent of inhibition is considered the peak time.

[3] = system: naja naja (snake venom) phospholipase A₂-induced paw edema; experiment: Phospholipase A₂-induced Paw Edema (PIPE); type: in vivo, male Wistar rats; conditions: for PIPE* (0.1 M): difference in edema vs. control, 0.1 M test compound injected with PLA₂ (3 units/paw), subplantar, rat hindpaw, two hours post administration
Description: The ability of compounds to prevent naja naja (snake venom) phospholipase A₂-induced paw edema in male Wistar rats (100-125 g) was measured. PLA₂ (3 units/paw) alone or with 0.1 M of the test compound was injected in the subplantar region of the rat left hindpaw. Immediately subsequent to the injection and at two hours post administration the paw was immersed in a mercury bath, and paw displacement was measured on a recorder via a transducer (Standard: hydrocortisone ED₅₀=0.46 M). See Giessler, A.J. et al., Agents and Actions, Vol. 10, Trends in Inflammation Research (1981), p. 195.

[4] = target: T1, porcine pancreatic PLA₂ (Sus scrofa, UniProt P00592); experiment: In Vitro Phospholipase A₂ Assay (PLA₂); type: biochemical
T1 construct: porcine pancreatic PLA₂ (3.2 units); from tissue; host or cells: porcine pancreas
T1 sequence (P00592 23-146): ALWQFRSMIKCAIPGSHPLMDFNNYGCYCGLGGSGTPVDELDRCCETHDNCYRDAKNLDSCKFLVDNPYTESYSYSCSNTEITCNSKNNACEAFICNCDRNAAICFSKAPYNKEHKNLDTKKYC
Description: The ability of a compound to modulate PLA₂ activity (cleavage of ¹⁴C-dipalmitoyl phosphotidylcholine at the 2-position to ¹⁴C-palmitic acid) was quantitated in this assay. The reaction mixture contained Tris buffer (25mM), pH 8.0, calcium chloride (2.0 mM), bovine serum albumin (0.5 mg), dipalmitoyl phosphotidylcholine (8x10⁻⁵M), (¹⁴C-palmitoyl)dipalmitoyl phosphotidylcholine (6x10³ cpm), porcine pancreatic PLA₂ (3.2 units) and the test compound. The reaction was run at 37°C in a shaking incubator. The reaction was quenched and an internal standard was added in order to determine sample recovery. […] See Feyen, J.H.M., et al., Journal of Chromatography 259 (1983), pp. 338-340.

[5] = system: ear edema induced by topical application of TPA (phorbol 12-myristate acetate); experiment: TPA-Induced Ear Edema (TPAEE); type: in vivo, Female Swiss Webster mice; conditions: for TPAEE (10 µg): 10 µg/ear topical, TPA 10µg/ear, ear punch weight after five hours
Description: The purpose of this assay was to determine the ability of a topically-applied compound to prevent ear edema induced by topical application of TPA (phorbol 12-myristate acetate). Female Swiss Webster mice topically received TPA (10µg/ear) on the right ear and vehicle on the left ear. The test compound (10 µg/ear) was applied to both ears. After five hours, the animals were sacrificed and an ear punch (4 mm) was taken from each ear. The difference in right and left ear punch weights for each animal was determined to assess activity (Standard: hydrocortisone ED₅₀=47 µg/ear). See Young, J.M. et al., J. Invest. Dermatol., 80 (1983), pp. 48-52.

[6] = system: mouse ear edema induced by topical application of arachidonic acid; experiment: Arachidonic Acid-Induced Ear Edema (AAEE); type: in vivo, Female Swiss Webster mice
Description: The purpose of this assay was to determine the ability of a topically-applied compound to prevent mouse ear edema induced by topical application of arachidonic acid. Female Swiss Webster mice topically received vehicle or test compound (1.0 mg/ear) on both ears (10µl on outer and inner ears). After 30 minutes, the right ear of all groups received arachidonic acid (4 mg/ear) and the left ear received vehicle alone. After an additional 1 hour, the mice were sacrificed and an ear punch (4 mm) was taken from each ear. The difference in right and left ear punch weights for each animal was determined to assess activity (Standard: indomethacin ED₅₀ = 1.5 mg/ear). See Young, J.M. et al., J. Invest. Dermatol., 80, (1983), pp 48-52.

[7] = Mus musculus, sc, 24 h, s.c, read-out: % of Animals with Scopolamine Induced Memory Deficit Reversal
[8] = 0.01 M test compound, porcine pancreatic PLA₂, 37°C, pH 8.0, change vs. control, read-out: PLA2* (0.01 M)

With `CCCCNCc1cnccc1N.Cl.Cl` [3-(Butylamino)methyl-4-pyridinamine dihydrochloride] the responders at 0.3 mg/kg [1, 7] was 27% and the “PQW (% inhibition of writhing)” value ([2]; Dose 20 mg/kg, s.c.) was 62%.
In the case of `Cl.Cl.Nc1ccncc1CNCc1ccccc1` [3-[(Phenylmethylamino)methyl]-4-pyridinamine dihydrochloride], the “PIPE* (0.1 M)” value [3] is reported as -51%, the inhibition at 10000 µM ([4]; pH 8, read-out: PLA2* (0.01 M)) is reported as 79% and the “PQW (% inhibition of writhing)” value ([2]; Dose 20 mg/kg, s.c.) is reported as 40%.
For `CC(NCc1ccccc1)c1cnccc1N` (stereo not drawn) [4-Amino-α-methyl-N-(phenylmethyl)-3-pyridinemethanamine], the “PIPE* (0.1 M)” value [3] was -44%.
In the case of `Nc1ccncc1C(=NO)c1ccccc1F` [(4-Amino-3-pyridinyl)-(2-fluorophenyl)-methanone oxime], the inhibition at 10000 µM [4, 8] is reported as 32% and the “TPAEE (10 µg)” value [5] is reported as -56%.
With `Nc1ccncc1C(N)c1ccccc1` (stereo not drawn) [(4-Amino-3-pyridinyl)benzenemethanamine dihydrochloride] the “PIPE* (0.1 M)” value [3] was -66% and the responders at 0.3 mg/kg [1, 7] was 27%.
In the case of `Cl.Cl.Nc1ccncc1C(N)C1CCCCC1` (stereo not drawn) [(4-Amino-3-pyridinyl)cyclohexylmethanamine dihydrochloride], the “PIPE* (0.1 M)” value [3] is reported as -68% and the inhibition at 10000 µM ([4]; pH 8, read-out: PLA2* (0.01 M)) is reported as 72%.
With `Cl.Nc1ccncc1C(=O)C1CCCCC1` [(4-Amino-3-pyridinyl)cyclohexylmethanone hydrochloride] the inhibition at 10000 µM ([4]; pH 8, read-out: PLA2* (0.01 M)) was 82% and the “TPAEE (10 µg)” value [5] was -53%.
Compound `Nc1ccncc1C(=NO)C1CCCCC1` [(4-Amino-3-pyridinyl)cyclohexylmethanone oxime hydrochloride] has an inhibition at 10000 µM ([4]; pH 8, read-out: PLA2* (0.01 M)) of 99%.
Work on `CC(NCc1ccccc1)c1cnccc1NC(=O)C(C)(C)C` (stereo not drawn) [N-[3-[1-(Phenylmethylamino)ethyl]-4-pyridinyl]-2,2-dimethylpropanamide dihydrochloride] yielded an inhibition at 10000 µM ([4]; pH 8, read-out: PLA2* (0.01 M)) of 74%.
In the case of `CNC(=O)Oc1ccc2c(c1)[C@]1(C)CCN(C)[C@@H]1N2C` [Physostigmine, reference compound], the “% of Animals with Scopolamine Induced Memory Deficit Reversal” value ([1]; mouse, in vivo, 0.31 mg/kg) is reported as 20%.
`CCC(=O)O[C@](Cc1ccccc1)(c1ccccc1)[C@H](C)CN(C)C` [Propoxyphene, reference compound] was tested, and the “PQW (% inhibition of writhing)” value ([2]; Dose 3.9 mg/kg, s.c. (reference compound)) was 50%.
`C[C@]12CCC(=O)C=C1CC[C@@H]1[C@@H]2[C@@H](O)C[C@@]2(C)[C@H]1CC[C@]2(O)C(=O)CO` [hydrocortisone, reference compound] gave an ED₅₀ ([3]; standard of the PIPE assay) of 0.46 M and an ED₅₀ ([5]; standard of the TPAEE assay, topical) of 47 µg/ear.
With `COc1ccc2c(c1)c(CC(=O)O)c(C)n2C(=O)c1ccc(Cl)cc1` [indomethacin, reference compound] the ED₅₀ ([6]; standard of the AAEE assay, topical) was 1.5 mg/ear.
`Nc1ccncc1C(O)c1ccccc1F` (stereo not drawn) [α-(2-Fluorophenyl)-4-amino-3-pyridinylmethanol hydrochloride] was tested, and the “PIPE* (0.1 M)” value [3] was -56% and the responders at 1 mg/kg ([1]; Mus musculus, sc, 24 h, Dose 1.0 mg/kg of body weight, s.c, read-out: % of Animals with Scopolamine Induced Memory Deficit Reversal) was 40%.
`CC(C)(C)C(=O)Nc1ccncc1C(O)C1CCCCC1` (stereo not drawn) [α-Cyclohexyl-4-(2,2-dimethylpropionamido)-3-pyridinylmethanol] was tested, and the “AAEE (1 mg)” value ([6]; 1.0 mg/ear topical, 30 minutes before arachidonic acid (4 mg/ear), ear punch weight after 1 hour) was -52%, the “TPAEE (10 µg)” value [5] was -55% and the responders at 0.16 mg/kg [1, 7] was 33%.
`Nc1ccncc1C(O)C1CCCCC1` (stereo not drawn) [α-Cyclohexyl-4-amino-3-pyridinylmethanol hydrochloride] showed a responders at 0.16 mg/kg [1, 7] of 50%.
In the case of `CC(O)c1cnccc1NC(=O)C(C)(C)C` (stereo not drawn) [α-Methyl-4-(2,2-dimethylpropionamido)-3-pyridinylmethanol], the “PQW (% inhibition of writhing)” value ([2]; Dose 20 mg/kg, s.c.) is reported as 89%.
With `CC(O)c1cnccc1N` (stereo not drawn) [α-Methyl-4-amino-3-pyridinylmethanol hydrochloride] the responders at 1.25 mg/kg ([1]; Mus musculus, sc, 24 h, Dose 1.25 mg/kg of body weight, s.c, read-out: % of Animals with Scopolamine Induced Memory Deficit Reversal) was 33%.
`CC(C)(C)C(=O)Nc1ccncc1C(O)c1ccccc1` (stereo not drawn) [α.Phenyl-4-(2,2-dimethylpropionamido)-3-pyridinylmethanol] was tested, and the responders at 0.31 mg/kg ([1]; Mus musculus, sc, 24 h, Dose 0.31 mg/kg of body weight, s.c, read-out: % of Animals with Scopolamine Induced Memory Deficit Reversal) was 40% and the “PQW (% inhibition of writhing)” value ([2]; Dose 20 mg/kg, s.c.) was 38%.
Work on `Nc1ccncc1C(O)c1ccccc1` (stereo not drawn) [α.Phenyl-4-amino-3-pyridinylmethanol hydrochloride] yielded an inhibition at 10000 µM [4, 8] of 87% and a responders at 0.63 mg/kg ([1]; Mus musculus, sc, 24 h, Dose 0.63 mg/kg of body weight, s.c, read-out: % of Animals with Scopolamine Induced Memory Deficit Reversal) of 27%.
